Earlier results on 2 molecules are cited in US11839662B2, “Compositions for neuromodulation of mosquito feeding behavior and uses thereof” (University of Central Florida Research Foundation, Inc., priority 2017, dated 2023).

The structures appear in SMILES notation.

`Clc1cccc(Cl)c1N=C1NCCN1` [Clonidine]: the “effect on oviposition and larval hatch rate” value with Anopheles gambiae is “decrease oviposition and larval hatch rate”.

With `CC1(C)CCC[C@]2(C)[C@@H](C=O)C(C=O)=CC[C@@H]12` [Polygodial], the “repellant and larvicidal effect” value in the data set on mosquitoes was “repellant ability in mosquitoes and act as a larvacide”.
